Measurements published in the supplement of paper PMC11451515.

Columns and labels:
Experiment in all cases: AUC of viability dose-response curve (% viability x log10 dose units); higher = less sensitive
Details in all cases: 48 h
[1] = tested on: P12-Ichikawa
Method in brief: (§1)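 Seeding of medium-adapted leukemia cells was at 500 or 1000 cells/well in 1536-well plates, followed by 48 h at 37°C with library compounds in DMSO at 11 threefold doses from 47 μM to 0.79 nM. CellTiter-Glo One luminescence was normalised per plate to DMSO and cell-free wells and fitted as a four-parameter log-logistic function of log10 dose. Area under the curve was integrated by trapezoidal rule, with curves exceeding full viability scaled and curves failing quality control removed.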

[2] = tested on: SEM cells
Method in brief: as §1

[3] = tested on: NOMO1
Method in brief: as §1

[4] = RPMI 5 mM glucose + 10% dialyzed FBS

## CCN(CC)CCCCNc1ncc2c(n1)N(C)C(=O)N(c1c(Cl)c(OC)cc(OC)c1Cl)C2
[1]; HPLM + 10% dialyzed FBS
  AUC of viability dose-response curve: 450
[1]; RPMI 5 mM glucose + 10% FBS
  AUC of viability dose-response curve: 446
[1]; [4]
  AUC of viability dose-response curve: 448
[2]; HPLM + 10% dialyzed FBS
  AUC of viability dose-response curve: 423
[2]; RPMI 5 mM glucose + 10% FBS
  AUC of viability dose-response curve: 421
[2]; [4]
  AUC of viability dose-response curve: 422
[3]; HPLM + 10% dialyzed FBS
  AUC of viability dose-response curve: 429
[3]; RPMI 5 mM glucose + 10% FBS
  AUC of viability dose-response curve: 453
[3]; [4]
  AUC of viability dose-response curve: 451
